The values below come from patent EP4467141A1, “PYRAZOLO-QUINOLINES AS SELECTIVE INHIBITORS OF GENOTOXIC STRESS-INDUCED IKK/NF- KB PATHWAYS FOR CANCER THERAPY” (Max-Delbrück-Centrum für Molekulare Medizin in der …, priority 2023, dated 2024).

For orientation: inhibition means the drop in the measured response relative to a control, in per cent.

Holding throughout (test): Kinase panel study
Format in all cases: biochemical
Conditions in all cases: read-out: Percentage of inhibition; for inhibition at 1 µM: 1000nM; for inhibition at 10 µM: 10000nM

One assay deals with T1, PRKCZ (PKC zeta) (Homo sapiens, UniProt Q05513).
T1 construct: purchased Thermo Fisher Scientific
T1 sequence (Q05513 1-592): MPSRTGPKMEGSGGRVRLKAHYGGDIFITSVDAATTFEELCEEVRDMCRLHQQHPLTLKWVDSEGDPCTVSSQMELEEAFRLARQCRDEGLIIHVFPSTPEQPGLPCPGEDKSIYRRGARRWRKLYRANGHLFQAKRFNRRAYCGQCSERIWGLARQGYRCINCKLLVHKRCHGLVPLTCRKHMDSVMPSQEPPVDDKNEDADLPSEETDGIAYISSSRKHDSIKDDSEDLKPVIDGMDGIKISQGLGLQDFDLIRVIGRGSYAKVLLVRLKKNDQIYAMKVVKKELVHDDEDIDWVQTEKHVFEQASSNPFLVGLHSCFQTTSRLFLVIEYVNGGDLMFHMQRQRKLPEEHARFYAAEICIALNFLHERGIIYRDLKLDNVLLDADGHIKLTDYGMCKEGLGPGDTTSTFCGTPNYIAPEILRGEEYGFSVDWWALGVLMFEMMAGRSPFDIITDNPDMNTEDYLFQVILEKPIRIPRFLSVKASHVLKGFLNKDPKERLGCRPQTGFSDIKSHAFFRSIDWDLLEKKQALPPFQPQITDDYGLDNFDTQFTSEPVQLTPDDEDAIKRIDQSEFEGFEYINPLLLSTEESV
The procedure, abridged: (§1)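 In vitro, kinase panel; ZLyte or Adapta SOP; single-concentration testing (1 or 10 µM); output = % inhibition, plus IC50 in panel.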

The next assay has as its target T2, PAK4 (Homo sapiens, UniProt O96013).
T2 construct: purchased Thermo Fisher Scientific
The gist of the method:
as §1

The target in a further assay is T3, GRK6 (Homo sapiens, UniProt P43250).
T3 construct: purchased Thermo Fisher Scientific
T3 sequence (P43250 whole entry): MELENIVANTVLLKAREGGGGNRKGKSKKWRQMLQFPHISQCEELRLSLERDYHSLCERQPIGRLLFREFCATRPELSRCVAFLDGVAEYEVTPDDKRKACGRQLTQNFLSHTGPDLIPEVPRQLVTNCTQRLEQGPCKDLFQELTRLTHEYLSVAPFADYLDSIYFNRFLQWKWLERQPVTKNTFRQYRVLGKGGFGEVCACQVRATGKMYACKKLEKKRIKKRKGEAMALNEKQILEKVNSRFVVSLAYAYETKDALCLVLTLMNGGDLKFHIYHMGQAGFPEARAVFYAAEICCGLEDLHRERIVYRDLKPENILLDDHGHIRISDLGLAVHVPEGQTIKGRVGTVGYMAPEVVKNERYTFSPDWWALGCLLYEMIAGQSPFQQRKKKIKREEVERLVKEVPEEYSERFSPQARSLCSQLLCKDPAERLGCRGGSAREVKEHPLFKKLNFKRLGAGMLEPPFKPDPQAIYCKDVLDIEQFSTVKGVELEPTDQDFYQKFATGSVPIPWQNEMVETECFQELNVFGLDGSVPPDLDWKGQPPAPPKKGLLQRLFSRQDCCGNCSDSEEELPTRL
The procedure, abridged:
as §1

In another assay the target is T4, EGFR (ErbB1) L858R (Homo sapiens, UniProt P00533, L858R).
T4 construct: purchased Thermo Fisher Scientific
T4 sequence (P00533 25-1210 L858R): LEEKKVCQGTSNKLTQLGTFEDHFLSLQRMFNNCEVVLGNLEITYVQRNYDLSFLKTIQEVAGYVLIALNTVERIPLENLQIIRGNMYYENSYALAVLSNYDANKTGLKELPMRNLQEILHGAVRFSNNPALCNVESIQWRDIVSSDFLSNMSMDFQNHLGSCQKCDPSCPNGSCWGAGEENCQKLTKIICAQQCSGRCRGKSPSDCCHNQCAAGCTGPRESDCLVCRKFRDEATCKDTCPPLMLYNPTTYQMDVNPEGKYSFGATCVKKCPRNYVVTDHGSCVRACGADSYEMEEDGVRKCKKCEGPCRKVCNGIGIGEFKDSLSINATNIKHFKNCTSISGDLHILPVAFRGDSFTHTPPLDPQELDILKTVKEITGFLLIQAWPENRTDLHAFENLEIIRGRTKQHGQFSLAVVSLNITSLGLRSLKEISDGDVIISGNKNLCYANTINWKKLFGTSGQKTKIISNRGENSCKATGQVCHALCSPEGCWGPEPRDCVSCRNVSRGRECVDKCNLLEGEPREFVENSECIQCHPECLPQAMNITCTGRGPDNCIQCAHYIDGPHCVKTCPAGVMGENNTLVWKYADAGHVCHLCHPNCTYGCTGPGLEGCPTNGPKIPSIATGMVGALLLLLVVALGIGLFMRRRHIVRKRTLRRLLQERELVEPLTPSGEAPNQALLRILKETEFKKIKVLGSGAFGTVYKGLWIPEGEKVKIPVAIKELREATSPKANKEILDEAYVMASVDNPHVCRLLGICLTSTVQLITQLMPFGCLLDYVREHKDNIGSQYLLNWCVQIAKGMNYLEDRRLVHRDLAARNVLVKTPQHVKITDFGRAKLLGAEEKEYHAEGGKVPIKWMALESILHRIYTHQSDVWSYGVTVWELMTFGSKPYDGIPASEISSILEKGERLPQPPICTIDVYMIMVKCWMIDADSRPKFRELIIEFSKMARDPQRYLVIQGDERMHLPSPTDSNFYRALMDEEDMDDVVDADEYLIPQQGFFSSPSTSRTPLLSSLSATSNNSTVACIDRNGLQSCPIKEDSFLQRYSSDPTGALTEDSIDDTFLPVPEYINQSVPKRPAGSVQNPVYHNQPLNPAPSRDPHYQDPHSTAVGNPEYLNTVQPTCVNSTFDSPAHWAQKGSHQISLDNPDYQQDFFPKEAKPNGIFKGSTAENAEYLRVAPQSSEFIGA
The procedure, abridged: as §1

For a further assay, the target named is T5, MARK2 (Homo sapiens, UniProt Q7KZI7).
T5 construct: purchased Thermo Fisher Scientific
T5 sequence (Q7KZI7 whole entry): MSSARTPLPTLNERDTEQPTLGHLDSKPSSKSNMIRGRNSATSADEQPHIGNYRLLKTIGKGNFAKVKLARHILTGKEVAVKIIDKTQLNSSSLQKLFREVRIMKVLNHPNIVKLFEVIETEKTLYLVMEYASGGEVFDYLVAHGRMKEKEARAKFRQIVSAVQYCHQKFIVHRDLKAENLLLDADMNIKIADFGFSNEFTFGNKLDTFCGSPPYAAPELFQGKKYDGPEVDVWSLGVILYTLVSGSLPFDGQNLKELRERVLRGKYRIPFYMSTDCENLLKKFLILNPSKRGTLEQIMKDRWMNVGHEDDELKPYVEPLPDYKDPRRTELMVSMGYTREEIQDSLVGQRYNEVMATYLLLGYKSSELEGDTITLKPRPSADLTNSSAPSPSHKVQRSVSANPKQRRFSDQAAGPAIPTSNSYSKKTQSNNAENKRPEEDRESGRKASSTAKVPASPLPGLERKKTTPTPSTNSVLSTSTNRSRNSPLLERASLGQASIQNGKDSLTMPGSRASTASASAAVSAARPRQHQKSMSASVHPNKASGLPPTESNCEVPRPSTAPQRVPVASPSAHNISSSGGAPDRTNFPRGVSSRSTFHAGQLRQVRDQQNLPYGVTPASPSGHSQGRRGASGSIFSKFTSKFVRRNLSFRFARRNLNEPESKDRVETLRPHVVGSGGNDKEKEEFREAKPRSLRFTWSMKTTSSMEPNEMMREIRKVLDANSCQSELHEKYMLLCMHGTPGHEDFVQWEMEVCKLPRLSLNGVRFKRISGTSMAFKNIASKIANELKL
The gist of the method: as §1

A further assay addresses T6, FLT3 D835Y (Homo sapiens, UniProt P36888, D835Y).
T6 construct: purchased Thermo Fisher Scientific
T6 sequence (P36888 27-993 D835Y): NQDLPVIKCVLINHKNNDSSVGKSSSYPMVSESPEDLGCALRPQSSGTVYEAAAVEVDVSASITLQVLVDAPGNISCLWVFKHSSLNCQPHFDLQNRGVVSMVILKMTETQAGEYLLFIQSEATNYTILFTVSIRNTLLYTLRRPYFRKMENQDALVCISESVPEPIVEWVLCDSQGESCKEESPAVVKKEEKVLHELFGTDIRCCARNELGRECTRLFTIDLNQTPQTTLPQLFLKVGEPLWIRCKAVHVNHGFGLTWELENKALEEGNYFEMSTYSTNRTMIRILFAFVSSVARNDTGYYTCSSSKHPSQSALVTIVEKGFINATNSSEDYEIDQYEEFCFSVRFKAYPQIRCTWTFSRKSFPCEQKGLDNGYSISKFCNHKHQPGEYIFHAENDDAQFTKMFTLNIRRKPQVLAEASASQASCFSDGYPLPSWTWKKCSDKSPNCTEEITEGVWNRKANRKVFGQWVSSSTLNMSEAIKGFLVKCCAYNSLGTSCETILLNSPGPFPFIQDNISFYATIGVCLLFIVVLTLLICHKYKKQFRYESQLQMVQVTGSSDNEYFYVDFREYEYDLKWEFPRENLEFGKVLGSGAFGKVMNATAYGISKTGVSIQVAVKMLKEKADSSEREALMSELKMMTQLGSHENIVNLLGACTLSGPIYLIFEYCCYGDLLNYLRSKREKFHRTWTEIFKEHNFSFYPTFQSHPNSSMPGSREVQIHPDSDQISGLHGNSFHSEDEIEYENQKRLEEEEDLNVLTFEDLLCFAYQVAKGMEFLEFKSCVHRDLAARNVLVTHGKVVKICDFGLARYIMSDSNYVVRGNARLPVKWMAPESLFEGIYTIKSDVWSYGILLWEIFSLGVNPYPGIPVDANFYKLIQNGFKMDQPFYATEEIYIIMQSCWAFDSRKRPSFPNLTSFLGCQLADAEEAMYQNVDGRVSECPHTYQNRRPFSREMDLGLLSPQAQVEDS
The procedure, abridged:
as §1

T2 sequence (O96013 whole entry): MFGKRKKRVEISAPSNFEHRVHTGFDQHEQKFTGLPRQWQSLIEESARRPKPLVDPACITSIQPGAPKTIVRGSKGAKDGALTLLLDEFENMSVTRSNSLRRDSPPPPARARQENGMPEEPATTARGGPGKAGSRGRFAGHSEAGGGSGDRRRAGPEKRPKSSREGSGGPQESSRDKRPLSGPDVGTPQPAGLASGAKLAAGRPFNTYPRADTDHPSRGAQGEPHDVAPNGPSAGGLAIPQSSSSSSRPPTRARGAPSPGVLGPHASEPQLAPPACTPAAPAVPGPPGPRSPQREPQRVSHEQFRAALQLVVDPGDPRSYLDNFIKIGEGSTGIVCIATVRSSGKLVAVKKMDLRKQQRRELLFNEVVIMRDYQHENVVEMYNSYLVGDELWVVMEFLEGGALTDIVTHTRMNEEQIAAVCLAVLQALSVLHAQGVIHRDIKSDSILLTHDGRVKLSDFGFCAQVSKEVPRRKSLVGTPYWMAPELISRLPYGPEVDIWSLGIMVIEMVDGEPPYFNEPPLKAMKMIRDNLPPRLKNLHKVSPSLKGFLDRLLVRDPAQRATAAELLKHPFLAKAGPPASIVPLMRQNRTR

In the case of `COc1ccc2c(c1OC)c(=O)n1c3ccc(O)cc3c3ccnc2c31` [MW01, 5-Hydroxy-10,11-dimethoxy-9H-benzo[c]indolo[3,2,1-ij][1,5]naphthyridin-9-one], the inhibition at 1 µM on PRKCZ (PKC zeta) worked out at 18%; on PAK4 it was 13%; at GRK6 it was 0%; at EGFR (ErbB1) L858R, 3%; at MARK2 it was 10%; on FLT3 D835Y it was 81%. The inhibition at 10 µM was 10% at PRKCZ (PKC zeta); 20% at PAK4; 5% on GRK6; 5% at EGFR (ErbB1) L858R; 5% at MARK2; 92% on FLT3 D835Y.

As for `COc1ccc2cc3c(N)nn(C(=O)c4cccc(N(C)C)c4)c3nc2c1` [MW05, (3-Amino-7-methoxypyrazolo[3,4-b]quinolin-1-yl)-[3-(dimethylamino)phenyl]methanone], the inhibition at 1 µM was 16% on PRKCZ (PKC zeta); 11% on PAK4; 6% on GRK6; 6% at EGFR (ErbB1) L858R; 3% at MARK2; 10% on FLT3 D835Y. Besides, the inhibition at 10 µM is -4% at PRKCZ (PKC zeta); 15% on PAK4; 3% on GRK6; 16% at EGFR (ErbB1) L858R; 5% at MARK2; 15% on FLT3 D835Y.
